In US7049311B1, “Pyrrolbenzodiazepines” (Spirogen Limited, priority 1998, dated 2006):
Read-outs that look alike come from different tables or passages of the source.

Assays:
calf thymus DNA = assay: DNA helix melting temperature assay; format: binding; details: [PBD]:[DNA] ratio of 1:5, calf thymus DNA
Protocol: The first assay, which is described in G. B. Jones, et al., Anti-Cancer Drug Des., 1990, 5, 249, which is incorporated herein by reference, determines the effect of the test compound on the helix melting temperature of DNA. This assay is designed to give an indication of the strength and extent of cross-linking of the DNA strands by the test compound (i.e. a measure of the stabilisation of the DNA upon ligand binding).
The melting temperature was determined for a 1:5 molar ratio of [ligand] [DNA], where the calf thymus DNA concentration is […] in aqueous sodium phosphate buffer (10 mM sodium phosphate+1 mM EDTA, pH 7.00±0.01). For calf thymus DNA at pH 7.00±0.01, the melting temperature is 67.83±0.06° C. (mean value from 30 separate determinations).

A2780cisR [1] = assay: Cytotoxicity in cisplatin-resistant A2780cisR (Example 9); format: cell-based, human
Protocol: (§1) Relative to the parental line, the A2780cisR subline is known to have elevated GSH levels, an increased level of repair of DNA-cisplatin adducts, and a decreased ability to uptake cisplatin (M. Smellie, et al., Br. J. Cancer, 1994, 70, 48).
(§2) The results, which were obtained by incubating the cells with the compounds for 96 hours at 37° C., and assessing the cell number using Sulforhodamine B, are presented in the table below: […]

[2] = system: human ovarian carcinoma cell line A2780; assay: Cytotoxicity in A2780 (Example 9); format: cell-based; details: read-out: IC50 A2780
Protocol: as §1, §2

SK-MEL-28 = assay: NCI in vitro cytotoxicity screen; format: cell-based; details: Homo sapiens, SK-MEL-28, 48 h, read-out: LC50
Protocol: (§3) The National Cancer Institute (NCI), Bethesda, Md., USA has available an in vitro cytotoxicity screen which consists of approximately 60 human tumour cell lines against which compounds are tested at a minimum of five concentrations each differing 10-fold. A 48 hour continuous exposure protocol is used, where cell viability or growth is estimated with an SRB protein assay.
(§4) The test compounds were evaluated against approximately 60 human tumour cell lines. The NCI screening procedures were described in detail by Monks and co-workers (Monks, A et al., Journal of the National Cancer Institute, 1991, 83, 757). Briefly, cell suspensions were diluted according to the particular cell type and the expected target cell density (5000-40,000 cells per well based on cell growth characteristics), and added by pipette (100 μL) into 96-well microtitre plates. The cells were allowed a preincubation period of 24 hours at 37° C. for stabilisation. Dilutions at twice the intended test concentration were added at time zero in 100 μL aliquots to the wells. The test compounds were evaluated at five 10-fold dilutions (10^−4, 10^−5, 10^−6, 10^−7 and 10^−[…]). The test compounds were incubated for 48 hours in 5% CO2 atmosphere and 100% humidity. The cells were then assayed using the sulphorhodamine B assay. A plate reader was used to read the optical densities and a microcomputer processed the readings into LC50 values, which is the dosage required to kill half of the cells.

COLO 205 = assay: NCI in vitro cytotoxicity screen; format: cell-based; details: Homo sapiens, COLO 205, 48 h, read-out: LC50
Protocol: as §3, §4

MDA-MB-435 = assay: NCI in vitro cytotoxicity screen; format: cell-based; details: Homo sapiens, MDA-MB-435, 48 h, read-out: LC50
Protocol: as §3, §4

SK-MEL-5 = assay: NCI in vitro cytotoxicity screen; format: cell-based; details: Homo sapiens, SK-MEL-5, 48 h, read-out: LC50
Protocol: as §3, §4

UACC-62 = assay: NCI in vitro cytotoxicity screen; format: cell-based; details: Homo sapiens, UACC-62, 48 h, read-out: LC50
Protocol: as §3, §4

M14 = assay: NCI in vitro cytotoxicity screen; format: cell-based; details: Homo sapiens, M14, 48 h, read-out: LC50
Protocol: as §3, §4

HCC-2998 = assay: NCI in vitro cytotoxicity screen; format: cell-based; details: Homo sapiens, HCC 2998, 48 h, read-out: LC50
Protocol: as §3, §4

RXF 393 = assay: NCI in vitro cytotoxicity screen; format: cell-based; details: Homo sapiens, RXF 393, 48 h, read-out: LC50
Protocol: as §3, §4

MALME-3M = assay: NCI in vitro cytotoxicity screen; format: cell-based; details: Homo sapiens, Malme-3M, 48 h, read-out: LC50
Protocol: as §3, §4

UACC-257 = assay: NCI in vitro cytotoxicity screen; format: cell-based; details: Homo sapiens, UACC-257, 48 h, read-out: LC50
Protocol: as §3, §4

NCI-H522 = assay: NCI in vitro cytotoxicity screen; format: cell-based; details: Homo sapiens, NCI-H522, 48 h, read-out: LC50
Protocol: as §3, §4

SK-MEL-2 = assay: NCI in vitro cytotoxicity screen; format: cell-based; details: Homo sapiens, SK-MEL-2, 48 h, read-out: LC50
Protocol: as §3, §4

CH1 = assay: Ovarian carcinoma cytotoxicity assay; format: cell-based; details: Homo sapiens
Protocol: (§5) Compounds of the invention (and Anthramycin as a comparison) were evaluated for their cytotoxic activity in ovarian cell lines by Dr Lloyd R. Kelland's group at The Institute of Cancer Research, Sutton, UK. The five cell lines investigated were SKOV-3, A2780/A2780cisR and CH1/CH1cisR (cis R denotes that the cell line is resistant to cisplatin).
(§6) Single viable cells were seeded in growth medium (160 μL) in […] microtitre plates and allowed to attach overnight. […] After 96 hours, the medium was removed and the remaining cells fixed by exposure to 10% trichloroacetic acid on ice for 30 minutes. The wells were then washed 3-4 times with tap water, air dried overnight and treated with 100 μL of sulphorhodamine B (0.4%) dissolved in 1% acetic acid. Staining was allowed to continue for 10-15 minutes, then the wells were washed 3-4 times with 1% acetic acid, air dried and then added to Tris base (100 μL of 10 mM). Plates were then shaken and absorbance readings at 540 nm were determined using a plate reader. By using the Quattro-Pro software package, the IC50 values were calculated from plots of concentration versus percentage absorbance (compared with 8 untreated wells).

SKOV-3 = assay: Ovarian carcinoma cytotoxicity assay; format: cell-based; details: Homo sapiens
Protocol: as §5, §6

CH1cisR = assay: Ovarian carcinoma cytotoxicity assay; format: cell-based; details: Homo sapiens, CH1cisR
Protocol: as §5, §6

[3] = system: approximately 60 human tumour cell lines; assay: NCI in vitro cytotoxicity screen, whole panel; format: cell-based
Protocol: as §3
as §4, with “The test compounds were incubated for 48 hours in 5% CO2 atmosphere and 100% humidity. The cells were then assayed using the sulphorhodamine B assay.” left out

A2780cisR [4] = assay: Ovarian carcinoma cytotoxicity assay; format: cell-based, human; details: Homo sapiens, A2780cisR
Protocol: as §5, §6

A2780 = assay: Ovarian carcinoma cytotoxicity assay; format: cell-based, human; details: Homo sapiens
Protocol: as §5, §6

SNB-75 = assay: NCI in vitro cytotoxicity screen; format: cell-based; details: Homo sapiens, SNB-75, 48 h, read-out: LC50
Protocol: as §3, §4

NCI-H460 = assay: NCI in vitro cytotoxicity screen; format: cell-based; details: Homo sapiens, NCI-H460, 48 h, read-out: LC50
Protocol: as §3, §4

KM12 = assay: NCI in vitro cytotoxicity screen; format: cell-based; details: Homo sapiens, KM12, 48 h, read-out: LC50
Protocol: as §3, §4

NCI-H23 = assay: NCI in vitro cytotoxicity screen; format: cell-based; details: Homo sapiens, NCI-H23, 48 h, read-out: LC50
Protocol: as §3, §4

MDA-N = assay: NCI in vitro cytotoxicity screen; format: cell-based; details: Homo sapiens, 48 h, read-out: LC50
Protocol: as §3, §4

SF-539 = assay: NCI in vitro cytotoxicity screen; format: cell-based; details: Homo sapiens, SF-539, 48 h, read-out: LC50
Protocol: as §3, §4

[5] = CH1, 96 hours, sulphorhodamine B, read-out: IC50 CH1
[6] = SK-OV-3, 96 hours, sulphorhodamine B, read-out: IC50 Skov3
[7] = cisplatin-resistant, 96 hours, sulphorhodamine B, read-out: IC50 CH1cisR
[8] = cisplatin-resistant, 96 hours, sulphorhodamine B, read-out: IC50 A2780cisR
[9] = A2780, 96 hours, sulphorhodamine B, read-out: IC50 A2780
[10] = CH1, 96 h, read-out: IC50 CH1, 96 hours, sulphorhodamine B
[11] = SK-OV-3, 96 h, read-out: IC50 Skov3, 96 hours, sulphorhodamine B
[12] = 96 h, read-out: IC50 CH1cisR, cisplatin-resistant, 96 hours, sulphorhodamine B
[13] = 96 h, read-out: IC50 A2780cisR, cisplatin-resistant, 96 hours, sulphorhodamine B
[14] = A2780, 96 h, read-out: IC50 A2780, 96 hours, sulphorhodamine B

Row | SMILES | CC50 (SK-MEL-28) [µM] | CC50 (COLO 205) [µM] | CC50 (MDA-MB-435) [µM] | CC50 (UACC-62) [µM] | CC50 (HCC-2998) [µM] | CC50 (RXF 393) [µM] | CC50 (MALME-3M) [µM] | CC50 (SK-MEL-2) [µM] | IC50 (CH1; [5]) [µM] | IC50 (SKOV-3; [6]) [µM] | IC50 (CH1cisR; [7]) [µM] | IC50 (A2780cisR [4]; [8]) [µM] | IC50 (A2780; [9]) [µM] | also measured
1 | COc1cc2c(cc1OCCCOc1cc3c(cc1OC)C(=O)N1CCC[C@@H]1C=N3)N=C[C@@H]1CCCN1C2=O [DSB-120, reference compound] | – | – | – | – | – | – | – | – | – | – | – | – | – | Induced ΔTa after incubation at 37° C. for 0 h (calf thymus DNA; pH 7.00, 0 h): 10.2 °C; Induced ΔTa after incubation at 37° C. for 4 h (calf thymus DNA; pH 7.00, 4 h): 13.1 °C; Induced ΔTa after incubation at 37° C. for 18 h (calf thymus DNA; pH 7.00, 18 h): 15.1 °C; IC50 (A2780cisR [1]; Homo sapiens, A2780cisR, 96 h, read-out: IC50 A2780cisR): 0.21 µM; IC50 (A2780cisR [1]; Homo sapiens, A2780cisR, 96 h, read-out: IC50 A2780cis^a): 0.21 µM; IC50 ([2]; Homo sapiens, A2780, 96 hours): 0.0072 µM
2 | O=C1c2cc(-c3ccccc3)ccc2N=C[C@@H]2CCCN12 [UP2026 (136), (11aS)-7-Phenyl-1,2,3,11a-tetrahydro-5H-pyrrolo[2,1-c][1,4]benzodiazepin-5-one] | 7.1 | 8.8 | 6.3 | 6.6 | 6.4 | 7.6 | 6.1 | 7.4 | 1.5 | 4.9 | 1.45 | 3.7 | 1.15 | CC50 (SK-MEL-5): 9 µM; CC50 (M14): 7.8 µM; CC50 (UACC-257): 7.7 µM; CC50 (NCI-H522): 7.8 µM; cytotoxicity in the CNS cell line panel ([3]; CNS panel): inactive
3 | O=C1c2cc(-c3cccc([N+](=O)[O-])c3)ccc2N=C[C@@H]2CCCN12 [UP2029 (140), (11aS)-7-(3′-Nitrophenyl)-1,2,3,11a-tetrahydro-5H-pyrrolo[2,1-c][1,4]benzodiazepin-5-one] | – | – | – | – | – | – | – | – | 22.5 | 1.4 | 14 | 32 | 34.5 | cytotoxic activity (LC50 below 10 μM) ([3]; all panels): completely abolished cytotoxic activity
4 | COC(=O)CC1=CN2C(=O)c3cc(OC)c(OCc4ccccc4)cc3N=C[C@@H]2C1 [UP2003 (24)] | – | 1.4 | – | 0.7 | 5.2 | – | 0.7 | – | 0.016 | 0.012 | 0.04 | 0.12 | 0.0145 | CC50 (SNB-75): 6 µM; CC50 (NCI-H460): 7.6 µM; CC50 (KM12): 9.5 µM
5 | N.N.[Cl][Pt][Cl] [Cisplatin, reference compound] | – | – | – | – | – | – | – | – | – | – | – | – | – | IC50 (A2780cisR [1]; cisplatin-resistant subline, 96 hours at 37° C., Sulforhodamine B, read-out: IC50 A2780cis^a): 8.4 µM; IC50 ([2]; 96 hours at 37° C., Sulforhodamine B): 0.265 µM
6 | COc1cc2c(cc1OCc1ccccc1)N=C[C@@H]1CC(CCOC(C)=O)=CN1C2=O [UP2051 (31), (11aS)-2-(Acyloxy-2-ethyl)-8-benzyloxy-7-methoxy-1,2,3,11a-tetrahydro-5H-pyrrolo[2,1-c][1,4]benzodiazepin-5-one] | – | – | – | – | 5.2 | 0.8 | 5.1 | 7.6 | – | – | – | – | – | CC50 (NCI-H23): 9.3 µM; IC50 (CH1; [10]): 0.105 µM; IC50 (SKOV-3; [11]): 0.46 µM; IC50 (CH1cisR; [12]): 0.16 µM; IC50 (A2780cisR [4]; [13]): 0.27 µM; IC50 (A2780; [14]): 0.1 µM
7 | COC(=O)CC1=CN2C(=O)c3cc(OC)c(OC)cc3N=C[C@@H]2C1 [UP2065 (42)] | – | 4 | 0.8 | – | – | 0.8 | 4.7 | 3.5 | 0.115 | 0.45 | 0.15 | 0.46 | 0.36 | –
8 | COc1cc2c(cc1OCc1ccccc1)N=C[C@@H]1CC(=O)CN1C2=O [UP2067 (172)] | 6.6 | 5.8 | 0.8 | 3 | – | 0.8 | 7.4 | – | – | – | – | – | – | CC50 (SNB-75): 5.4 µM; CC50 (M14): 0.8 µM; CC50 (MDA-N): 0.6 µM; CC50 (NCI-H522): 5 µM; CC50 (SF-539): 6.8 µM; IC50 (CH1; [10]): 0.165 µM; IC50 (SKOV-3; [11]): 0.54 µM; IC50 (CH1cisR; [12]): 0.18 µM; IC50 (A2780cisR [4]; [13]): 0.39 µM; IC50 (A2780; [14]): 0.115 µM
9 | C=C1C[C@H]2C=Nc3cc(OC)c(OC)cc3C(=O)N2C1 [UP2064 (74), (11aS)-7,8-Dimethoxy-2-methylidene-1,2,3,11a-tetrahydro-5H-pyrrolo[2,1-c][1.4]benzodiazepin-5-one] | 2.6 | 0.6 | 2.3 | 0.6 | – | 0.8 | 0.9 | 1.7 | 0.066 | 0.39 | 0.084 | 0.36 | 0.15 | CC50 (UACC-257): 7.4 µM
